Results reported in BindingDB's records for doi:10.1021/jm701049p (Seoul National University, 2008).
Values belong to the molecule of their own block, whether it stands above or below them.

Target: Transient receptor potential cation channel subfamily V member 1 (Rattus norvegicus, UniProt O35433)
Assay: Competition Binding Assay and Inhibition of Ca2+ Uptake Assay
Conditions: pH 7.4, 37 °C
Procedure: Binding assay mixtures were set up and contained [3H] RTX, various concentrations of competing ligands, and rVR1-transfected CHO cells. Nonspecific binding was determined in the presence of 100 nM nonradioactive RTX. After the binding reaction, membrane-bound RTX was separated from the free by centrifugation, and the radioactivity was determined by scintillation counting. Equilibrium binding parameters (Ki, Bmax, and cooperativity) were determined by fitting the Hill equation to the measured values with the aid of the program Origin 6.0.

Transient receptor potential cation channel subfamily V member 1, sequence (O35433 whole entry): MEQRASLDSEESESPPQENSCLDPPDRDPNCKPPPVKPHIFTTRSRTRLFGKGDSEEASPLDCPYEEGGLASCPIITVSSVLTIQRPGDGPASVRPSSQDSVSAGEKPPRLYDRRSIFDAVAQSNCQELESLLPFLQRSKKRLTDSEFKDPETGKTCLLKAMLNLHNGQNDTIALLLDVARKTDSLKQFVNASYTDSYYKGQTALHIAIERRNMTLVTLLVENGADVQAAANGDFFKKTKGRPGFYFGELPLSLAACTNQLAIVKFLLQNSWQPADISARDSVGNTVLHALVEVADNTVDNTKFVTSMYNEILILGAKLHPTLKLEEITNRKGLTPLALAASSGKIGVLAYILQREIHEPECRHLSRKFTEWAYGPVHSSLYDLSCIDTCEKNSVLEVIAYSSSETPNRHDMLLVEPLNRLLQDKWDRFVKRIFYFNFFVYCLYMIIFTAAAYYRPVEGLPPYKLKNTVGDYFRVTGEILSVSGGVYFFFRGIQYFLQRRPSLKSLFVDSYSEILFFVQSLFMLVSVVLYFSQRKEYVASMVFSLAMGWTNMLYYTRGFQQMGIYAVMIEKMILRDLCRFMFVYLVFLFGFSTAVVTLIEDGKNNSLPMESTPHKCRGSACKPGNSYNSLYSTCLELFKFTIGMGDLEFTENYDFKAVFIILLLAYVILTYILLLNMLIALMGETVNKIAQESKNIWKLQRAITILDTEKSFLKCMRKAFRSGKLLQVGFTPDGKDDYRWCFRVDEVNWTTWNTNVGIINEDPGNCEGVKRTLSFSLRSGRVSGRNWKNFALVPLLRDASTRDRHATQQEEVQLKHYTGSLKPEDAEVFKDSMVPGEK

- Ki: 52 nM
Compound: CC(C)(C)C(=O)OCC(CNC(=S)NCc1ccc(NS(C)(=O)=O)c(F)c1)Cc1ccc(C(C)(C)C)cc1 (stereo not drawn)

- Ki: 440 nM
Compound: CC(C)(C)C(=O)OCC(CNC(=O)Cc1ccc(NS(C)(=O)=O)c(F)c1)Cc1ccc(C(C)(C)C)cc1 (stereo not drawn)

- Ki: 7.8 nM
Compound: Cc1ccc(CC(CNC(=S)NCc2ccc(NS(C)(=O)=O)c(F)c2)COC(=O)C(C)(C)C)cc1C (stereo not drawn)

- Ki: 65 nM
Compound: Cc1ccc(CC(CNC(=O)C(C)(C)c2ccc(NS(C)(=O)=O)c(F)c2)COC(=O)C(C)(C)C)cc1C (stereo not drawn) [2-[(3,4-dimethylphenyl)methyl]-3-[2-(3-fluoro-4-methanesulfonamidophenyl)-2-methylpropanamido]propyl 2,2-dimethylpropanoate]

Compound: Cc1ccc(CC(CNC(=O)C(C)c2ccc(NS(C)(=O)=O)c(F)c2)COC(=O)C(C)(C)C)cc1C (stereo not drawn) [2-[(3,4-dimethylphenyl)methyl]-3-[2-(3-fluoro-4-methanesulfonamidophenyl)propanamido]propyl 2,2-dimethylpropanoate]
- Ki: 10.8 nM

Compound: COc1cc(C(C)(C)C(=O)NCC(COC(=O)C(C)(C)C)Cc2ccc(C)c(C)c2)ccc1NS(C)(=O)=O (stereo not drawn) [2-[(3,4-dimethylphenyl)methyl]-3-[2-(4-methanesulfonamido-3-methoxyphenyl)-2-methylpropanamido]propyl 2,2-dimethylpropanoate]
- Ki: 133 nM

Compound: COc1cc(C(C)C(=O)NCC(COC(=O)C(C)(C)C)Cc2ccc(C)c(C)c2)ccc1NS(C)(=O)=O (stereo not drawn) [2-[(3,4-dimethylphenyl)methyl]-3-[2-(4-methanesulfonamido-3-methoxyphenyl)propanamido]propyl 2,2-dimethylpropanoate]
- Ki: 13.6 nM

Compound: Cc1ccc(CC(CNC(=O)C(C)(C)c2ccc(NS(C)(=O)=O)cc2)COC(=O)C(C)(C)C)cc1C (stereo not drawn) [2-[(3,4-dimethylphenyl)methyl]-3-[2-(4-methanesulfonamidophenyl)-2-methylpropanamido]propyl 2,2-dimethylpropanoate]
- Ki: 104 nM

Compound: Cc1ccc(CC(CNC(=O)C(C)c2ccc(NS(C)(=O)=O)cc2)COC(=O)C(C)(C)C)cc1C (stereo not drawn) [2-[(3,4-dimethylphenyl)methyl]-3-[2-(4-methanesulfonamidophenyl)propanamido]propyl 2,2-dimethylpropanoate]
- Ki: 38 nM

Compound: Cc1ccc(CC(CNC(=O)C2(c3ccc(NS(C)(=O)=O)c(F)c3)CC2)COC(=O)C(C)(C)C)cc1C (stereo not drawn) [2-[(3,4-dimethylphenyl)methyl]-3-{[1-(3-fluoro-4-methanesulfonamidophenyl)cyclopropyl]formamido}propyl 2,2-dimethylpropanoate]
- Ki: 567 nM

Compound: COc1cc(C2(C(=O)NCC(COC(=O)C(C)(C)C)Cc3ccc(C)c(C)c3)CC2)ccc1NS(C)(=O)=O (stereo not drawn) [2-[(3,4-dimethylphenyl)methyl]-3-{[1-(4-methanesulfonamido-3-methoxyphenyl)cyclopropyl]formamido}propyl 2,2-dimethylpropanoate]
- Ki: 118 nM

Compound: Cc1ccc(CC(CNC(=O)C2(c3ccc(NS(C)(=O)=O)cc3)CC2)COC(=O)C(C)(C)C)cc1C (stereo not drawn) [2-[(3,4-dimethylphenyl)methyl]-3-{[1-(4-methanesulfonamidophenyl)cyclopropyl]formamido}propyl 2,2-dimethylpropanoate]
- Ki: 197 nM

Compound: CC(C(=O)NCC(COC(=O)C(C)(C)C)Cc1ccc(C(C)(C)C)cc1)c1ccc(NS(C)(=O)=O)c(Cl)c1 (stereo not drawn) [2-[(4-tert-butylphenyl)methyl]-3-[2-(3-chloro-4-methanesulfonamidophenyl)propanamido]propyl 2,2-dimethylpropanoate]
- Ki: 12.3 nM

Compound: CC(C(=O)NCC(COC(=O)C(C)(C)C)Cc1ccc(C(C)(C)C)cc1)c1ccc(NS(C)(=O)=O)cc1 (stereo not drawn) [2-[(4-tert-butylphenyl)methyl]-3-[2-(4-methanesulfonamidophenyl)propanamido]propyl 2,2-dimethylpropanoate]
- Ki: 52 nM

Compound: Cc1ccc(CC(CNC(=O)C(C)c2ccc(NS(C)(=O)=O)c(Cl)c2)COC(=O)C(C)(C)C)cc1C (stereo not drawn) [3-[2-(3-chloro-4-methanesulfonamidophenyl)propanamido]-2-[(3,4-dimethylphenyl)methyl]propyl 2,2-dimethylpropanoate]
- Ki: 36 nM

Compound: C[C@@H](C(=O)NC[C@H](COC(=O)C(C)(C)C)Cc1ccc(C(C)(C)C)cc1)c1ccc(NS(C)(=O)=O)c(F)c1 [(2R)-2-[(4-tert-butylphenyl)methyl]-3-[(2R)-2-(3-fluoro-4-methanesulfonamidophenyl)propanamido]propyl 2,2-dimethylpropanoate]
- Ki: 30.3 nM

Compound: C[C@H](C(=O)NC[C@H](COC(=O)C(C)(C)C)Cc1ccc(C(C)(C)C)cc1)c1ccc(NS(C)(=O)=O)c(Cl)c1 [(2R)-2-[(4-tert-butylphenyl)methyl]-3-[(2S)-2-(3-chloro-4-methanesulfonamidophenyl)propanamido]propyl 2,2-dimethylpropanoate]
- Ki: 5.2 nM

Compound: C[C@H](C(=O)NC[C@H](COC(=O)C(C)(C)C)Cc1ccc(C(C)(C)C)cc1)c1ccc(NS(C)(=O)=O)c(F)c1 [(2R)-2-[(4-tert-butylphenyl)methyl]-3-[(2S)-2-(3-fluoro-4-methanesulfonamidophenyl)propanamido]propyl 2,2-dimethylpropanoate]
- Ki: 0.58 nM

Compound: C[C@@H](C(=O)NC[C@H](COC(=O)C(C)(C)C)Cc1ccccc1)c1ccc(NS(C)(=O)=O)c(F)c1 [(2R)-2-benzyl-3-[(2R)-2-(3-fluoro-4-methanesulfonamidophenyl)propanamido]propyl 2,2-dimethylpropanoate]
- Ki: 98 nM

Compound: C[C@H](C(=O)NC[C@H](COC(=O)C(C)(C)C)Cc1ccccc1)c1ccc(NS(C)(=O)=O)c(F)c1 [(2R)-2-benzyl-3-[(2S)-2-(3-fluoro-4-methanesulfonamidophenyl)propanamido]propyl 2,2-dimethylpropanoate]
- Ki: 8.56 nM

Compound: C[C@@H](C(=O)NC[C@@H](COC(=O)C(C)(C)C)Cc1ccc(C(C)(C)C)cc1)c1ccc(NS(C)(=O)=O)c(F)c1 [(2S)-2-[(4-tert-butylphenyl)methyl]-3-[(2R)-2-(3-fluoro-4-methanesulfonamidophenyl)propanamido]propyl 2,2-dimethylpropanoate]
- Ki: 142 nM

Compound: C[C@H](C(=O)NC[C@@H](COC(=O)C(C)(C)C)Cc1ccc(C(C)(C)C)cc1)c1ccc(NS(C)(=O)=O)c(Cl)c1 [(2S)-2-[(4-tert-butylphenyl)methyl]-3-[(2S)-2-(3-chloro-4-methanesulfonamidophenyl)propanamido]propyl 2,2-dimethylpropanoate]
- Ki: 12.1 nM

Compound: C[C@H](C(=O)NC[C@@H](COC(=O)C(C)(C)C)Cc1ccc(C(C)(C)C)cc1)c1ccc(NS(C)(=O)=O)c(F)c1 [(2S)-2-[(4-tert-butylphenyl)methyl]-3-[(2S)-2-(3-fluoro-4-methanesulfonamidophenyl)propanamido]propyl 2,2-dimethylpropanoate]
- Ki: 10.9 nM

Compound: C[C@@H](C(=O)NC[C@@H](COC(=O)C(C)(C)C)Cc1ccccc1)c1ccc(NS(C)(=O)=O)c(F)c1 [(2S)-2-benzyl-3-[(2R)-2-(3-fluoro-4-methanesulfonamidophenyl)propanamido]propyl 2,2-dimethylpropanoate]
- Ki: 205 nM

Compound: C[C@H](C(=O)NC[C@@H](COC(=O)C(C)(C)C)Cc1ccccc1)c1ccc(NS(C)(=O)=O)c(F)c1 [(2S)-2-benzyl-3-[(2S)-2-(3-fluoro-4-methanesulfonamidophenyl)propanamido]propyl 2,2-dimethylpropanoate]
- Ki: 10 nM

Compound: C=C(C)[C@]12C[C@@H](C)[C@@]34OC(Cc5ccccc5)(O[C@@H]1[C@@H]3C=C(COC(=O)Cc1cc(I)c(O)c(OC)c1)C[C@]1(O)C(=O)C(C)=C[C@@H]41)O2 [[(1R,2R,6R,10S,11R,15R,17R)-13-benzyl-6-hydroxy-4,17-dimethyl-5-oxo-15-(prop-1-en-2-yl)-12,14,18-trioxapentacyclo[11.4.1.0^{1,10}.0^{2,6}.0^{11,15}]octadeca-3,8-dien-8-yl]methyl 2-(4-hydroxy-3-iodo-5-methoxyphenyl)acetate]
- Ki: 12.2 nM
- Ki (read-out: Ki): 0.61 nM

Compound: CC(C(=O)NCC(COC(=O)C(C)(C)C)Cc1ccc(C(C)(C)C)cc1)c1ccc(NS(C)(=O)=O)c(F)c1 (stereo not drawn) [diastereomeric mixture]
- Ki: 3.24 nM
